Measurements: PubChem BioAssay (NCI)
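GI50: concentration for 50% inhibition of growth. Definition used: TGI = concentration required for complete inhibition of growth.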

Assays:
Experiment in all cases: DTP human tumour cell line panel, 384-well format
OVCAR-4 ovarian = tested on: OVCAR-4 ovarian
CCRF-CEM leukemia = tested on: CCRF-CEM leukemia
HOP-92 NSCLC = tested on: HOP-92 NSCLC
CAKI-1 renal = tested on: CAKI-1 renal
RPMI-8226 leukemia = tested on: RPMI-8226 leukemia
TK-10 renal = tested on: TK-10 renal
A549 NSCLC = tested on: A549 NSCLC
OVCAR-8 ovarian = tested on: OVCAR-8 ovarian
NCI/ADR-RES ovarian = tested on: NCI/ADR-RES ovarian
MALME-3M melanoma = tested on: MALME-3M melanoma
SK-MEL-28 melanoma = tested on: SK-MEL-28 melanoma
MDA-MB-435 melanoma = tested on: MDA-MB-435 melanoma
RXF 393 renal = tested on: RXF 393 renal
MDA-MB-231 breast = tested on: MDA-MB-231 breast
SF-539 CNS = tested on: SF-539 CNS
NCI-H522 lung = tested on: NCI-H522 lung
M14 melanoma = tested on: M14 melanoma
NCI-H23 lung = tested on: NCI-H23 lung
ACHN renal = tested on: ACHN renal
UACC-62 melanoma = tested on: UACC-62 melanoma
HCT-15 colon = tested on: HCT-15 colon
OVCAR-3 ovarian = tested on: OVCAR-3 ovarian
U251 glioblastoma = tested on: U251 glioblastoma
MDA-MB-468 breast = tested on: MDA-MB-468 breast
SNB-19 CNS = tested on: SNB-19 CNS
DU-145 prostate = tested on: DU-145 prostate
A498 renal = tested on: A498 renal
SK-OV-3 ovarian = tested on: SK-OV-3 ovarian
SR leukemia = tested on: SR leukemia
IGROV1 ovarian = tested on: IGROV1 ovarian
EKVX NSCLC = tested on: EKVX NSCLC
OVCAR-5 ovarian = tested on: OVCAR-5 ovarian
PC-3 prostate = tested on: PC-3 prostate
SF-295 CNS = tested on: SF-295 CNS
HL-60(TB) leukemia = tested on: HL-60(TB) leukemia
K-562 leukemia = tested on: K-562 leukemia
NCI-H226 lung = tested on: NCI-H226 lung
786-0 renal = tested on: 786-0 renal
UO-31 renal = tested on: UO-31 renal
COLO 205 colon = tested on: COLO 205 colon
BT-549 breast = tested on: BT-549 breast
UACC-257 melanoma = tested on: UACC-257 melanoma
SNB-75 CNS = tested on: SNB-75 CNS
MOLT-4 leukemia = tested on: MOLT-4 leukemia
LOX IMVI melanoma = tested on: LOX IMVI melanoma
T-47D breast = tested on: T-47D breast
HS 578T breast = tested on: HS 578T breast
SK-MEL-5 melanoma = tested on: SK-MEL-5 melanoma
SW-620 colon = tested on: SW-620 colon
HOP-62 NSCLC = tested on: HOP-62 NSCLC
NCI-H460 NSCLC = tested on: NCI-H460 NSCLC
KM12 colon = tested on: KM12 colon
HT29 colon = tested on: HT29 colon
SN12C renal = tested on: SN12C renal
NCI-H322M lung = tested on: NCI-H322M lung
MCF7 breast = tested on: MCF7 breast
SF-268 CNS = tested on: SF-268 CNS
HCC-2998 colon = tested on: HCC-2998 colon

## C=CC(=O)Nc1cccc(Oc2nc(Nc3ccc(N4CCN(C)CC4)cc3OC)ncc2Cl)c1
OVCAR-4 ovarian
  GI50: 1540 nM
  TGI: 4150 nM
CCRF-CEM leukemia
  GI50: 1420 nM
  TGI: 2720 nM
HOP-92 NSCLC
  GI50: 1100 nM
  TGI: 2340 nM
CAKI-1 renal
  GI50: 765 nM
  TGI: 2050 nM
RPMI-8226 leukemia
  GI50: 1160 nM
  TGI: 2380 nM
TK-10 renal
  GI50: 788 nM
  TGI: 2060 nM
A549 NSCLC
  GI50: 1230 nM
  TGI: 2480 nM
OVCAR-8 ovarian
  GI50: 1440 nM
  TGI: 2760 nM
NCI/ADR-RES ovarian
  GI50: 1510 nM
  TGI: 2850 nM
MALME-3M melanoma
  GI50: 1530 nM
  TGI: 2860 nM
SK-MEL-28 melanoma
  GI50: 1670 nM
  TGI: 3030 nM
MDA-MB-435 melanoma
  GI50: 1710 nM
  TGI: 3100 nM
RXF 393 renal
  GI50: 1290 nM
  TGI: 2570 nM
MDA-MB-231 breast
  GI50: 1560 nM
  TGI: 2950 nM
SF-539 CNS
  GI50: 1540 nM
  TGI: 2880 nM
NCI-H522 lung
  GI50: 257 nM
  TGI: 1250 nM
M14 melanoma
  GI50: 1770 nM
  TGI: 3160 nM
NCI-H23 lung
  GI50: 1830 nM
  TGI: 3860 nM
ACHN renal
  GI50: 440 nM
  TGI: 1710 nM
UACC-62 melanoma
  GI50: 1560 nM
  TGI: 2900 nM
HCT-15 colon
  GI50: 1340 nM
  TGI: 2640 nM
OVCAR-3 ovarian
  GI50: 1250 nM
  TGI: 2520 nM
U251 glioblastoma
  GI50: 1690 nM
  TGI: 3090 nM
MDA-MB-468 breast
  GI50: 16.7 nM
  TGI: 90.9 nM
SNB-19 CNS
  GI50: 2600 nM
  TGI: 8340 nM
DU-145 prostate
  GI50: 1320 nM
  TGI: 3080 nM
A498 renal
  GI50: 517 nM
  TGI: 1890 nM
SK-OV-3 ovarian
  GI50: 1040 nM
  TGI: 2230 nM
SR leukemia
  GI50: 1560 nM
  TGI: 2890 nM
IGROV1 ovarian
  GI50: 754 nM
  TGI: 2040 nM
EKVX NSCLC
  GI50: 374 nM
  TGI: 1650 nM
OVCAR-5 ovarian
  GI50: 1550 nM
  TGI: 3390 nM
PC-3 prostate
  GI50: 1700 nM
  TGI: 3140 nM
SF-295 CNS
  GI50: 1870 nM
  TGI: 3450 nM
HL-60(TB) leukemia
  GI50: 1070 nM
  TGI: 2260 nM
K-562 leukemia
  GI50: 1630 nM
  TGI: 3000 nM
NCI-H226 lung
  GI50: 1130 nM
  TGI: 2520 nM
786-0 renal
  GI50: 1180 nM
  TGI: 2420 nM
UO-31 renal
  GI50: 1350 nM
  TGI: 2660 nM
COLO 205 colon
  GI50: 1720 nM
  TGI: 3100 nM
BT-549 breast
  GI50: 1300 nM
  TGI: 2590 nM
UACC-257 melanoma
  GI50: 1210 nM
  TGI: 2460 nM
SNB-75 CNS
  GI50: 1440 nM
  TGI: 2890 nM
MOLT-4 leukemia
  GI50: 1500 nM
  TGI: 2820 nM
LOX IMVI melanoma
  GI50: 1660 nM
  TGI: 3030 nM
T-47D breast
  GI50: 1110 nM
  TGI: 2320 nM
HS 578T breast
  GI50: 1370 nM
  TGI: 2670 nM
SK-MEL-5 melanoma
  GI50: 1570 nM
  TGI: 2920 nM
SW-620 colon
  GI50: 1720 nM
  TGI: 3110 nM
HOP-62 NSCLC
  GI50: 1800 nM
  TGI: 3510 nM
NCI-H460 NSCLC
  GI50: 1640 nM
  TGI: 3020 nM
KM12 colon
  GI50: 1700 nM
  TGI: 3090 nM
HT29 colon
  GI50: 1650 nM
  TGI: 3020 nM
SN12C renal
  GI50: 1090 nM
  TGI: 2610 nM
NCI-H322M lung
  GI50: 354 nM
  TGI: 1670 nM
MCF7 breast
  GI50: 1140 nM
  TGI: 2360 nM
SF-268 CNS
  GI50: 1460 nM
  TGI: 2790 nM
HCC-2998 colon
  GI50: 1570 nM
  TGI: 2930 nM
